The source of these data is ChEMBL document CHEMBL1145549, “Constrained NBMPR analogue synthesis, pharmacophore mapping and 3D-QSAR modeling of equilibrative nucleoside transporter 1 (ENT1) inhibitory activity” (Bioorg Med Chem, 2008).

A value given as a limit tells only on which side of the number the result lay.

One experiment concerns the target T1, Equilibrative nucleoside transporter 1 (Homo sapiens, UniProt Q99808).
T1 sequence (Q99808 whole entry): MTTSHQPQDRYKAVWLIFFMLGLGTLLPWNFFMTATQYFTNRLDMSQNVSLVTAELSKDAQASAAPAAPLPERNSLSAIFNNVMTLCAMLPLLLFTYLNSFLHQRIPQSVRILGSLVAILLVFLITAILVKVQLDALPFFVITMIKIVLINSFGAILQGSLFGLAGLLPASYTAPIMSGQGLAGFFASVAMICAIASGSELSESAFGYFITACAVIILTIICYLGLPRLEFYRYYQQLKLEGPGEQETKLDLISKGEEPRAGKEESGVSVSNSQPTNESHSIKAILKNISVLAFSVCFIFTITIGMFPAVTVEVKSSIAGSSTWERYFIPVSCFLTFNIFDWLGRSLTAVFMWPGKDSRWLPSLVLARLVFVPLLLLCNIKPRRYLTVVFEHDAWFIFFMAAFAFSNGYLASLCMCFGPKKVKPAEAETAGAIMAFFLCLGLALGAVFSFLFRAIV
Put plainly: Binding affinity to ENT1 transporter.
For orientation: IC50 means the concentration at which inhibition is half-maximal. Lower therefore signals greater potency in that assay. Compound `O=[N+]([O-])c1cccc2c1CCN(c1ncnc3c1nc1n3[C@@H]3O[C@H](CO1)[C@@H](O)[C@H]3O)C2` showed a 50% inhibitory concentration (IC50) of 7410 µM.
As to `O=[N+]([O-])c1ccc2c(c1)CN(c1ncnc3c1nc1n3[C@@H]3O[C@H](CO1)[C@@H](O)[C@H]3O)CC2`, the concentration for half-maximal inhibition (IC50) is 0.331 µM.
As to `O=[N+]([O-])c1ccc2c(c1)CCN(c1ncnc3c1nc1n3[C@@H]3O[C@H](CO1)[C@@H](O)[C@H]3O)C2`, the IC50 is 245 µM.
With `Nc1nc(SCc2ccccc2[N+](=O)[O-])c2ncn([C@@H]3O[C@H](CO)[C@@H](O)[C@H]3O)c2n1`, the half-maximal inhibitory concentration (IC50) is 4.57 µM. This IC50 lies about 54-fold lower than the previous one.
Turning to `Nc1nc(SCc2ccccn2)c2ncn([C@@H]3O[C@H](CO)[C@@H](O)[C@H]3O)c2n1`, the half-maximal inhibitory concentration (IC50) is 34.7 µM.
The compound `OC[C@H]1O[C@@H](n2ccc3c(N4CCCCC4)ncnc32)[C@H](O)[C@@H]1O` had an IC50 of 195 µM.
Take `OC[C@H]1O[C@@H](n2cnc3c(CSc4ccc(F)cc4)ncnc32)[C@H](O)[C@@H]1O`: the IC50 is 0.158 µM.
`Nc1nc(SCc2ccccc2Cl)c2ncn([C@@H]3O[C@H](CO)[C@@H](O)[C@H]3O)c2n1`: the 50% inhibitory concentration (IC50) was 13.5 µM.
Turning to `OC[C@H]1O[C@@H](n2cnc3c(CSc4cccc(C(F)(F)F)c4)ncnc32)[C@H](O)[C@@H]1O`, the concentration for half-maximal inhibition (IC50) was 0.331 µM.
`Nc1nc(SCc2ccccc2F)c2ncn([C@@H]3O[C@H](CO)[C@@H](O)[C@H]3O)c2n1` had a 50% inhibitory concentration (IC50) of 4.79 µM.
Still for that read-out and setting: to `C=CCSc1ncnc2c1ncn2[C@@H]1O[C@H](CO)[C@@H](O)[C@H]1O` belongs 13.8 µM; to `OC[C@H]1O[C@@H](n2cc(I)c3c(Cl)ncnc32)[C@H](O)[C@@H]1O`, 77.6 µM; to `CSc1ncnc2c1ncn2[C@@H]1O[C@H](CO)[C@@H](O)[C@H]1O`, 229 µM.
Regarding `COc1ncnc2c1ccn2[C@@H]1O[C@H](CO)[C@@H](O)[C@H]1O`, the half-inhibitory concentration (IC50) is 339 µM.
On the same count and under the same terms, to `COc1ccc(SCc2ncnc3c2ncn3[C@@H]2O[C@H](CO)[C@@H](O)[C@H]2O)cc1` belongs 0.617 µM.
With `OC[C@H]1O[C@@H](n2cnc3c(CSc4cccc(Cl)c4)ncnc32)[C@H](O)[C@@H]1O`, the IC50 was 0.282 µM.
`O=[N+]([O-])c1cccc2c1CN(c1ncnc3c1ncn3[C@@H]1O[C@H](CO)[C@@H](O)[C@H]1O)CC2` had a half-maximal inhibitory concentration (IC50) of 3.63 µM. This IC50 is about 13-fold higher than that of the compound before.
`Nc1nc(SCc2cccc([N+](=O)[O-])c2)c2ncn([C@@H]3O[C@H](CO)[C@@H](O)[C@H]3O)c2n1` showed an IC50 of 0.178 µM. This IC50 is about 20-fold lower than that of the compound before.
The same measure, in the same setting: to `Cc1ccc(CNc2ncnc3c2ncn3[C@@H]2O[C@H](CO)[C@@H](O)[C@H]2O)cc1[N+](=O)[O-]` belongs 1.17 µM; to `OC[C@H]1O[C@@H](n2cnc3c(SCC4CCCCC4)ncnc32)[C@H](O)[C@@H]1O`, 1.55 µM.
Compound `CN(Cc1ccc([N+](=O)[O-])cc1)c1ncnc2c1ncn2[C@@H]1O[C@H](CO)[C@@H](O)[C@H]1O` gave a 50% inhibitory concentration (IC50) of 0.309 µM.
As to `O=[N+]([O-])c1ccc(CNc2ncnc3c2ncn3[C@@H]2O[C@H](CO)[C@@H](O)[C@H]2O)c(Cl)c1`, the half-inhibitory concentration (IC50) is 0.347 µM.
On to `OC[C@H]1O[C@@H](n2cnc3c(CSc4cccc(F)c4)ncnc32)[C@H](O)[C@@H]1O`, for which the IC50 was 0.2 µM.
`CCCC(C)n1cnc2c(SCc3ccccn3)nc(N)nc21` (configuration not stated) had an IC50 of 41.7 µM.
The compound `COC(=O)c1ccc(SCc2ncnc3c2ncn3[C@@H]2O[C@H](CO)[C@@H](O)[C@H]2O)cc1` showed an IC50 of 0.813 µM.
Regarding `c1ccc(CCNc2ncnc3[nH]ncc23)cc1`, the half-maximal inhibitory concentration (IC50) is 100 µM.
Take `CCSc1ncnc2c1ncn2[C@@H]1O[C@H](CO)[C@@H](O)[C@H]1O`: the IC50 was 57.5 µM.
On the same count and under the same terms, to `Cc1cc(CNc2ncnc3c2ncn3[C@@H]2O[C@H](CO)[C@@H](O)[C@H]2O)ccc1[N+](=O)[O-]` belongs 0.0871 µM; to `Cc1ccc([N+](=O)[O-])c(CNc2ncnc3c2ncn3[C@@H]2O[C@H](CO)[C@@H](O)[C@H]2O)c1`, 1.29 µM.
With `OC[C@H]1O[C@@H](n2cnc3c(CSc4cccc(Br)c4)ncnc32)[C@H](O)[C@@H]1O`, the half-inhibitory concentration (IC50) was 0.363 µM.
Consider `CC(=O)c1ccccc1Sc1nc(N)nc2c1ncn2[C@@H]1O[C@H](CO)[C@@H](O)[C@H]1O`, for which the IC50 was 447 µM.
The compound `Nc1ncnc2c1c(I)cn2[C@@H]1O[C@H](CO)[C@@H](O)[C@H]1O` [IODOTUBERCIDIN] had an IC50 of 229 µM.
Compound `O=[N+]([O-])c1cc(CNc2ncnc3c2ncn3[C@@H]2O[C@H](CO)[C@@H](O)[C@H]2O)ccc1Cl` gave an IC50 of 0.708 µM.
Turning to `O=[N+]([O-])c1cc(Cl)ccc1CNc1ncnc2c1ncn2[C@@H]1O[C@H](CO)[C@@H](O)[C@H]1O`, the 50% inhibitory concentration (IC50) was 46.8 µM.
On to `OC[C@H]1O[C@@H](n2cnc3c(NCc4ccco4)ncnc32)[C@H](O)[C@@H]1O` [KINETIN RIBOSIDE], for which the IC50 is 36.3 µM.
For the compound `OC[C@H]1O[C@@H](n2cnc3c(CSc4ccc(Cl)cc4)ncnc32)[C@H](O)[C@@H]1O`, the concentration for half-maximal inhibition (IC50) is 0.251 µM.
In turn, `Cc1cccc(CSc2ncnc3c2ncn3[C@@H]2O[C@H](CO)[C@@H](O)[C@H]2O)c1` showed an IC50 of 12 µM. This IC50 is about 48-fold higher than that of the compound before.
Still for that read-out and setting: in the case of `OC[C@H]1O[C@@H](n2cnc3c(CSc4ccc(OC(F)(F)F)cc4)ncnc32)[C@H](O)[C@@H]1O` it was 0.123 µM; in that of `O=[N+]([O-])c1ccc(CNc2ncnc3c2ncn3[C@@H]2O[C@H](CO)C[C@H]2O)cc1`, 0.977 µM; in that of `OC[C@H]1O[C@@H](n2cnc3c(CSc4ccc(Br)cc4)ncnc32)[C@H](O)[C@@H]1O`, 0.178 µM.
In the case of `O=[N+]([O-])c1ccc(O)c(CSc2ncnc3c2ncn3[C@@H]2O[C@H](CO)[C@@H](O)[C@H]2O)c1`, the IC50 is 0.0331 µM.
The same measure, in the same setting: to `O=[N+]([O-])c1ccc(CNc2ncnc3c2ncn3[C@@H]2O[C@H](CO)[C@@H](O)[C@H]2O)cc1` belongs 0.0275 µM.
With `CC(C)Nc1ncnc2c1ncn2[C@@H]1O[C@H](CO)[C@@H](O)[C@H]1O`, the IC50 is 257 µM. This IC50 is about 9300-fold higher than that of the compound before.
Compound `COc1cccc(CNc2ncnc3c2ncn3[C@@H]2O[C@H](CO)[C@@H](O)[C@H]2O)c1` showed an IC50 of 115 µM.
In turn, `Nc1nc(SCc2cccnc2)c2ncn([C@@H]3O[C@H](CO)[C@@H](O)[C@H]3O)c2n1` gave a 50% inhibitory concentration (IC50) of 14.8 µM.
For `OC[C@H]1O[C@@H](n2cnc3c(CSc4c(F)cccc4Cl)ncnc32)[C@H](O)[C@@H]1O`, the IC50 is 1.51 µM.
On the same count and under the same terms, to `Cc1ccccc1CSc1ncnc2c1ncn2[C@@H]1O[C@H](CO)[C@@H](O)[C@H]1O` belongs 6.31 µM; to `OC[C@H]1O[C@@H](n2cnc3c(SCc4ccccc4)ncnc32)[C@H](O)[C@@H]1O` [6-BENZYLTHIOINOSINE], 1.7 µM.
For `Nc1ccc(CNc2ncnc3c2ncn3[C@@H]2O[C@H](CO)[C@@H](O)[C@H]2O)cc1`, the half-maximal inhibitory concentration (IC50) was 4.17 µM.
The compound `Nc1nc(SCCc2ccccc2)c2ncn([C@@H]3O[C@H](CO)[C@@H](O)[C@H]3O)c2n1` showed a 50% inhibitory concentration (IC50) of 16.2 µM. Against the preceding compound, the IC50 is about 3.9-fold higher.
The same measure, in the same setting: in the case of `O=[N+]([O-])c1cccc2c1CN(c1ncnc3c1nc1n3[C@@H]3O[C@H](CO1)[C@@H](O)[C@H]3O)CC2` it was 1740 µM.
Regarding `CC(C)(C)c1ccc(SCc2ncnc3c2ncn3[C@@H]2O[C@H](CO)[C@@H](O)[C@H]2O)cc1`, the 50% inhibitory concentration (IC50) was 331 µM.
In the case of `Nc1nc(SCc2ccc([N+](=O)[O-])cc2)c2ncn([C@@H]3O[C@H](CO)[C@@H](O)[C@H]3O)c2n1`, the half-maximal inhibitory concentration (IC50) is 0.0214 µM.

A further experiment addresses T1, Equilibrative nucleoside transporter 1. The experiment can be described thus: Displacement of 5-(SAENTA)-X8-fluorescein from human ENT1 transporter in human K562 cells. The experiment is classed as cell-based.
For orientation: Ki means the equilibrium dissociation constant of an inhibitor or competing ligand from its target. The low end stands for higher affinity, the high end for lower affinity. As to `O=[N+]([O-])c1cccc2c1CCN(c1ncnc3c1nc1n3[C@@H]3O[C@H](CO1)[C@@H](O)[C@H]3O)C2`, the Ki is more than 1 µM.
`O=[N+]([O-])c1ccc2c(c1)CN(c1ncnc3c1nc1n3[C@@H]3O[C@H](CO1)[C@@H](O)[C@H]3O)CC2` gave an inhibitory constant (Ki) of 0.0189 µM.
The compound `O=[N+]([O-])c1ccc2c(c1)CCN(c1ncnc3c1nc1n3[C@@H]3O[C@H](CO1)[C@@H](O)[C@H]3O)C2` displayed a Ki of more than 1 µM.
In turn, `O=[N+]([O-])c1cccc2c1CN(c1ncnc3c1nc1n3[C@@H]3O[C@H](CO1)[C@@H](O)[C@H]3O)CC2` came in with an inhibitory constant (Ki) of more than 1 µM.
